# Source: patent US20250073201A1, “COMPOSITIONS AND METHODS FOR TREATING ACUTE ALCOHOL INTAKE” (NEXT LEVEL HEALTH SCIENCES INC, priority 2021, published 2025)
# System: hangover symptoms
# Test: Testing of composition components on alcohol-induced (hangover) symptoms
# Format: in vivo, human
# Description: To test, various components of the compositions disclosed herein, individuals were selected to test the efficacy of various formulations. The scale employed during the testing of alcohol-induced symptoms was as follows: (a) no symptoms; (b) very mild symptoms; (c) mild symptoms; (d) moderate symptoms; (e) severe symptoms; and/or (f) very severe symptoms. […] The testing was carried out by a person of average size and build consuming standard alcoholic drinks (e.g., a beer) and the components below were consumed generally prior to consumption of alcohol. […]
# [1] = man of average size, standard alcoholic drinks, taken prior to alcohol
smiles,measurement,setting,value
"O=C1c2c(O)cc(O)cc2O[C@H](c2cc(O)c(O)c(O)c2)[C@H]1O [DHM, dihydromyricetin]",alcohol-induced symptoms,"3 drinks, 300 mg DHM (without DHM: very mild symptoms)",elimination of all symptoms
same,alcohol-induced symptoms,"3 drinks, less than 300 mg DHM (without DHM: very mild symptoms)",no reduction of symptoms
same,alcohol-induced symptoms,"6 drinks, 300 mg DHM (without DHM: moderate symptoms)",reduction to mild symptoms
same,alcohol-induced symptoms,"6 drinks, 750 mg DHM (without DHM: moderate symptoms)",reduction to very mild symptoms
same,alcohol-induced symptoms,"6 drinks, 1200 mg DHM (without DHM: moderate symptoms)",elimination of all symptoms
same,alcohol-induced symptoms,"9 drinks, 300 mg DHM (without DHM: severe symptoms)",no reduction of symptoms
same,alcohol-induced symptoms,"9 drinks, 750 mg DHM (without DHM: severe symptoms)",reduction to moderate symptoms
same,alcohol-induced symptoms,"9 drinks, 1200 mg DHM (without DHM: severe symptoms)",reduction to mild symptoms
same,alcohol-induced symptoms,"9 drinks, 1500 mg DHM (without DHM: severe symptoms)",reduction to very mild symptoms
same,alcohol-induced symptoms,"9 drinks, 1850 mg DHM (without DHM: severe symptoms)",reduction of all symptoms with the sole exception of fatigue
same,elimination of all symptoms,"12 and 15 drinks, all DHM doses tested","no dose of DHM, as tested, eliminated all symptoms"
same,alcohol-induced symptoms,"12 drinks, 750 mg DHM (without DHM: severe symptoms)",no reduction of symptoms
same,alcohol-induced symptoms,"12 drinks, 1200 mg DHM (without DHM: severe symptoms)",no reduction of symptoms
same,alcohol-induced symptoms,"12 drinks, 1500 mg DHM (without DHM: severe symptoms)",reduction to moderate symptoms
same,alcohol-induced symptoms,"12 drinks, 1850 mg DHM (1500 mg gave moderate symptoms)",no further reduction in symptoms
same,alcohol-induced symptoms,"12 drinks, 2400 mg DHM (1500 mg gave moderate symptoms)",no further reduction in symptoms
same,alcohol-induced symptoms,"15 drinks, 1500 mg DHM (without DHM: very severe symptoms)",no reduction of symptoms
same,alcohol-induced symptoms,"15 drinks, 1850 mg DHM (without DHM: very severe symptoms)",reduction to severe symptoms
same,alcohol-induced symptoms,"15 drinks, 2400 mg DHM (1850 mg gave severe symptoms)",no further reduction of symptoms
same,alcohol-induced symptoms,"15 drinks, 3600 mg DHM (1850 mg gave severe symptoms)",no further reduction of symptoms
same,alcohol-induced symptoms,"18 drinks, 1850 mg DHM (without DHM: very severe symptoms)",no reduction of symptoms
same,alcohol-induced symptoms,"18 drinks, 2400 mg DHM (without DHM: very severe symptoms)",no reduction of symptoms
same,alcohol-induced symptoms,"18 drinks, 3600 mg DHM (without DHM: very severe symptoms)",no reduction of symptoms
same,alcohol-induced symptoms,"18 drinks, 5000 mg DHM (without DHM: very severe symptoms)",no reduction of symptoms
same,dosage above which no additional benefits were seen,[1],about 1850 mg
same,dosage at which benefits on hangover symptoms begin,[1],about 300 mg
